In the test the test system is PC3 prostate cancer cells. Kind of test: Cell viability of prostate cancer PC3 cells after 72 hours treatment. It is filed as cell-based. Conditions: Homo sapiens; for viability at 2.5 µM: PC-3, 2.5 μM; for viability at 5 µM: PC-3, 5 μM; for viability at 10 µM: PC-3, 10 μM; for viability at 20 µM: PC-3, 20 μM. How it is done:
Effects of compounds LLS42-LLS80 on the viability of PC3 prostate cancer cells after 72 hours of treatment are shown in Table 2 below: […]

Broadly, the viability is a read-out of living cells in per cent, often relative to untreated cells. In the case of `NC(=O)CC(NCc1cccc2ccccc12)c1ccc2c(c1)nc(-c1ccc(N(CCO)CCO)cc1)n2Cc1ccc(OC(F)(F)F)cc1` (stereo not shown) [LLS63, 3-(2-(4-(bis(2-hydroxyethyl)amino)phenyl)-1-(4-(trifluoromethoxy)benzyl)-1H-benzo[d]imidazol-5-yl)-3-((naphthalen-1-ylmethyl)amino)propanamide], the viability at 2.5 µM was 80%, the viability at 5 µM was found to be 86%, the viability at 10 µM is 29% and the viability at 20 µM amounted to 0%.
As for `COc1ccc(CCn2c(-c3ccc(N(CCO)CCO)cc3)nc3cc(C(CC(N)=O)NCc4ccc5[nH]ncc5c4)ccc32)cc1` (stereo not shown) [LLS53, 3-(((1H-indazol-5-yl)methyl)amino)-3-(2-(4-(bis(2-hydroxyethyl)amino)phenyl)-1-(4-methoxyphenethyl)-1H-benzo[d]imidazol-5-yl)propanamide], the viability at 2.5 µM was 93%, the viability at 5 µM turned out to be 91%, the viability at 10 µM came out at 98% and the viability at 20 µM was determined as 105%.
In the same order, the values of `CC(=O)OCCN(CCOC(C)=O)c1ccc(-c2nc3cc(C(CC(N)=O)NCc4cccn4S(=O)(=O)c4ccccc4)ccc3n2CCCN2CCCCC2)cc1` (stereo not shown) [LLS52Ac, ((4-(5-(3-amino-3-oxo-1-(((1-(phenylsulfonyl)-1H-pyrrol-2-yl)methyl)amino)propyl)-1-(3-(piperidin-1-yl)propyl)-1H-benzo[d]imidazol-2-yl)phenyl)azanediyl)bis(ethane-2,1-diyl) Diacetate] are 91%, 96%, 94% and 91%.
As to `CC(=O)OCCN(CCO)c1ccc(-c2nc3cc(C(CC(N)=O)NCc4ccc(-c5ccn[nH]5)s4)ccc3n2CCCN(C)C)cc1` (stereo not shown) [LLS66, 2-((4-(5-(1-(((5-(1H-pyrazol-5-yl)thiophen-2-yl)methyl)amino)-3-amino-3-oxopropyl)-1-(3-(dimethylamino)propyl)-1H-benzo[d]imidazol-2-yl)phenyl)(2-hydroxyethyl)amino)ethyl Acetate], the viability at 2.5 µM came out at 98%, the viability at 5 µM turned out to be 91%, the viability at 10 µM was found to be 89% and the viability at 20 µM stood at 79%.
In the same order, the values of `NCCCn1c(-c2ccc(N(CCO)CCO)cc2)nc2cc(C(CC(N)=O)NCc3ccc(C4CC=NN4)s3)ccc21` (stereo not shown) [LLS54, 3-(1-(3-aminopropyl)-2-(4-(bis(2-hydroxyethyl)amino)phenyl)-1H-benzo[d]imidazol-5-yl)-3-(((5-(4,5-dihydro-1H-pyrazol-5-yl)thiophen-2-yl)methyl)amino)propanamide] are 90%, 86%, 105% and 87%.
`NC(=O)CC(NCC1CCCCC1)c1ccc2c(c1)nc(-c1ccc(N(CCO)CCO)cc1)n2Cc1ccc(OC(F)(F)F)cc1` (stereo not shown) [LLS42, 3-(2-(4-(bis(2-hydroxyethyl)amino)phenyl)-1-(4-(trifluoromethoxy)benzyl)-1H-benzo[d]imidazol-5-yl)-3-((cyclohexylmethyl)amino)propanamide]: the viability at 2.5 µM is 95%, the viability at 5 µM was 92%, the viability at 10 µM was 49% and the viability at 20 µM worked out at 0%.
In the case of `NC(=O)CC(NCc1ccc(Cl)c(Cl)c1)c1ccc2c(c1)nc(-c1ccc(N(CCO)CCO)cc1)n2CCCN1CCCCC1` (stereo not shown) [LLS46, 3-(2-(4-(bis(2-hydroxyethyl)amino)phenyl)-1-(3-(piperidin-1-yl)propyl)-1H-benzo[d]imidazol-5-yl)-3-((3,4-dichlorobenzyl)amino)propanamide], the viability at 2.5 µM stood at 86%, the viability at 5 µM was 97%, the viability at 10 µM amounted to 92% and the viability at 20 µM came out at 94%.
The like results for `NC(=O)CC(NCc1ccc(Cl)c(Cl)c1)c1ccc2c(c1)nc(-c1ccc(N3CCOCC3)cc1)n2CCCN1CCCCC1` (stereo not shown) [LLS65, 3-((3,4-dichlorobenzyl)amino)-3-(2-(4-morpholinophenyl)-1-(3-(piperidin-1-yl)propyl)-1H-benzo[d]imidazol-5-yl)propanamide] were, in that order, 95%, 94%, 74% and 34%.
With `COc1cc(CNC(CC(N)=O)c2ccc3c(c2)nc(-c2ccc(N(CCO)CCOC(C)=O)cc2)n3C(C)C)cc(Br)c1OC` (stereo not shown) [LLS43, 2-((4-(5-(3-amino-1-((3-bromo-4,5-dimethoxybenzyl)amino)-3-oxopropyl)-1-isopropyl-1H-benzo[d]imidazol-2-yl)phenyl)(2-hydroxyethyl)amino)ethyl Acetate], the viability at 2.5 µM stood at 105%, the viability at 5 µM was 102%, the viability at 10 µM worked out at 101% and the viability at 20 µM was determined as 105%.
Turning to `NC(=O)CC(NCC1CCCCC1)c1ccc2c(c1)nc(-c1ccc(N(CCO)CCO)cc1)n2Cc1ccc(C(F)(F)F)cc1` (stereo not shown) [LLS71, 3-(2-(4-(bis(2-hydroxyethyl)amino)phenyl)-1-(4-(trifluoromethyl)benzyl)-1H-benzo[d]imidazol-5-yl)-3-((cyclohexylmethyl)amino)propanamide], the viability at 2.5 µM turned out to be 91%, the viability at 5 µM is 83%, the viability at 10 µM turned out to be 59% and the viability at 20 µM turned out to be 3%.
Regarding `CN1CCN(c2ccc(-c3nc4cc(C(CC(N)=O)NCc5ccc(Cl)c(Cl)c5)ccc4n3Cc3ccc(C(F)(F)F)cc3)cc2)CC1` (stereo not shown) [LLS64, 3-((3,4-dichlorobenzyl)amino)-3-(2-(4-(4-methylpiperazin-1-yl)phenyl)-1-(4-(trifluoromethyl)benzyl)-1H-benzo[d]imidazol-5-yl)propanamide], the viability at 2.5 µM worked out at 94%, the viability at 5 µM amounted to 83%, the viability at 10 µM was found to be 60% and the viability at 20 µM is 3%.
In the same order, the values of `COc1ccc(CCn2c(-c3ccc(N(CCO)CCO)cc3)nc3cc(C(CC(N)=O)NCC4CCCCC4)ccc32)cc1` (stereo not shown) [LLS56] are 104%, 105%, 98% and 93%.
In the same order, the values of `NC(=O)CC(NCc1ccc(-c2cncnc2)cc1)c1ccc2c(c1)nc(-c1ccc(N(CCO)CCO)cc1)n2Cc1ccc(OC(F)(F)F)cc1` (stereo not shown) [LLS51, 3-(2-(4-(bis(2-hydroxyethyl)amino)phenyl)-1-(4-(trifluoromethoxy)benzyl)-1H-benzo[d]imidazol-5-yl)-3-((4-(pyrimidin-5-yl)benzyl)amino)propanamide] are 83%, 79%, 99% and 105%.
The like results for `COc1ccc(CCn2c(-c3ccc(N(CCOC(C)=O)CCOC(C)=O)cc3)nc3cc(C(CC(N)=O)NCc4ccc5[nH]ncc5c4)ccc32)cc1` (stereo not shown) [LLS53Ac, ((4-(5-(1-(((1H-indazol-5-yl)methyl)amino)-3-amino-3-oxopropyl)-1-(4-methoxyphenethyl)-1H-benzo[d]imidazol-2-yl)phenyl)azanediyl)bis(ethane-2,1-diyl) Diacetate] were, in that order, 97%, 94%, 99% and 101%.
With `NC(=O)CC(NCc1cccn1S(=O)(=O)c1ccccc1)c1ccc2c(c1)nc(-c1ccc(N(CCO)CCO)cc1)n2CCCN1CCCCC1` (stereo not shown) [LLS52, 3-(2-(4-(bis(2-hydroxyethyl)amino)phenyl)-1-(3-(piperidin-1-yl)propyl)-1H-benzo[d]imidazol-5-yl)-3-(((1-(phenylsulfonyl)-1H-pyrrol-2-yl)methyl)amino)propanamide], the viability at 2.5 µM is 97%, the viability at 5 µM was found to be 96%, the viability at 10 µM came to 87% and the viability at 20 µM stood at 84%.
The like results for `COc1cc(CNC(CC(N)=O)c2ccc3c(c2)nc(-c2ccc(N(CCOC(C)=O)CCOC(C)=O)cc2)n3C(C)C)cc(Br)c1OC` (stereo not shown) [LLS43Ac, ((4-(5-(3-amino-1-((3-bromo-4,5-dimethoxybenzyl)amino)-3-oxopropyl)-1-isopropyl-1H-benzo[d]imidazol-2-yl)phenyl)azanediyl)bis(ethane-2,1-diyl) Diacetate] were, in that order, 97%, 102%, 103% and 97%.
`CC(=O)OCCN(CCO)c1ccc(-c2nc3cc(C(CC(N)=O)NCc4ccc(-c5ccncc5)cc4)ccc3n2CCCn2ccnc2)cc1` (stereo not shown) [LLS67, 2-((4-(1-(3-(1H-imidazol-1-yl)propyl)-5-(3-amino-3-oxo-1-((4-(pyridin-4-yl)benzyl)amino)propyl)-1H-benzo[d]imidazol-2-yl)phenyl)(2-hydroxyethyl)amino)ethyl Acetate]: the viability at 2.5 µM was determined as 93%, the viability at 5 µM was 94%, the viability at 10 µM was found to be 99% and the viability at 20 µM worked out at 93%.
Regarding `NC(=O)CC(NCc1ccc(-c2ccncc2)cc1)c1ccc2c(c1)nc(-c1ccc(N(CCO)CCO)cc1)n2CCCn1ccnc1` (stereo not shown) [LLS58, 3-(1-(3-(1H-imidazol-1-yl)propyl)-2-(4-(bis(2-hydroxyethyl)amino)phenyl)-1H-benzo[d]imidazol-5-yl)-3-((4-(pyridin-4-yl)benzyl)amino)propanamide], the viability at 2.5 µM was 92%, the viability at 5 µM worked out at 84%, the viability at 10 µM amounted to 81% and the viability at 20 µM was determined as 74%.
In the same order, the values of `COc1ccc(CCn2c(-c3ccc(N(CCOC(C)=O)CCOC(C)=O)cc3)nc3cc(C(CC(N)=O)NCc4ccc5[nH]ccc5c4)ccc32)cc1` (stereo not shown) [LLS69Ac, ((4-(5-(1-(((1H-indol-5-yl)methyl)amino)-3-amino-3-oxopropyl)-1-(4-methoxyphenethyl)-1H-benzo[d]imidazol-2-yl)phenyl)azanediyl)bis(ethane-2,1-diyl) Diacetate] are 101%, 95%, 73% and 2%.

The values are drawn from patent publication US10844052B2, “LLS compounds for treatment of cancer” (THE REGENTS OF THE UNIVERSITY OF CALIFORNIA, priority 2016, dated 2020).
